Source: patent US20070219266A1, “N-Acylated-3-(Benzoyl)-Pyrrolidines as 11-Beta-HSD1 Inhibitors Useful for the Treatment of Metabolic Disorders” (priority 2003, published 2007)

target: T1, human 11βHSD1 (Homo sapiens, UniProt P28845); assay: HeLa GRE4-βGal/11βHSD1 cell reporter assay (cortisone to cortisol conversion, β-galactosidase readout); type: cell-based; conditions: HeLa GRE4-βGal/11βHSD1 cells, cortisone 1 μM, overnight incubation, absorbance at 570 nm
T1 construct: stably transfected with a construct containing full-length human 11βHSD1 enzyme (in pCMVHyg); expressed in transfected cells
Text: HeLa cells (human cervical carcinoma derived cells) were stably transfected with a construct containing four copies of the glucocorticoid response element (GRE) linked to a beta-galactosidase reporter gene (3 kb lac Z gene derived from pSV-B-galactosidase). These cells were then further stably transfected with a construct containing full-length human 11βHSD1 enzyme (in pCMVHyg) to create GRE4-βGal/11βHSD1 cells. The principal of the assay is as follows. Cortisone is freely taken up by the cells and is converted to cortisol by 11βHSD1 oxo-reductase activity and cortisol (but not cortisone) binds to and activates the glucocorticoid receptor. Activated glucocorticoid receptor then binds to the GRE and initiates transcription and translation of β-galactosidase. Enzyme activity can then be assayed with high sensitivity by colourimetric assay.
Cells were routinely cultured in DMEM (Invitrogen, Paisley, Renfrewshire, UK) containing 10% foetal calf serum (LabTech), 1% glutamine (Invitrogen), 1% penicillin & streptomycin (Invitrogen), 0.5 mg/ml G418 (Invitrogen) & 0.5 mg/ml hygromycin (Boehringer). Assay media was phenol red free-DMEM containing 1% glutamine, 1% penicillin & streptomycin.
Compounds (1 mM) to be tested were dissolved in dimethyl sulphoxide (DMSO) and serially diluted into assay media containing […]. […]
A cocktail (25 μl) consisting of 10× Z-buffer (600 mM Na2HPO4, 400 mM NaH2PO4.2H2O, 100 mM KCl, 10 mM MgSO4.7H2O, 500 mM β-mercaptoethanol, pH 7.0), SDS (0.2%), chlorophenol red-β-D-galactopyranoside (5 mM, Roche Diagnostics) was added per well and plates incubated at 37° C. for 3-4 hours. β-Galactosidase activity was indicated by a yellow to red colour change (absorbance at 570 nm) measured using a Tecan Spectrafluor Ultra.
The calculation of median inhibitory concentration (IC50) values for the inhibitors was performed using Origin 6.0 (Microcal Software, Northampton Mass. USA). Dose response curves for each inhibitor were plotted as OD units at each inhibitor concentration with relation to a maximum signal (cortisone, no compound) and IC50 values calculated. […]

T1 sequence (P28845 whole entry): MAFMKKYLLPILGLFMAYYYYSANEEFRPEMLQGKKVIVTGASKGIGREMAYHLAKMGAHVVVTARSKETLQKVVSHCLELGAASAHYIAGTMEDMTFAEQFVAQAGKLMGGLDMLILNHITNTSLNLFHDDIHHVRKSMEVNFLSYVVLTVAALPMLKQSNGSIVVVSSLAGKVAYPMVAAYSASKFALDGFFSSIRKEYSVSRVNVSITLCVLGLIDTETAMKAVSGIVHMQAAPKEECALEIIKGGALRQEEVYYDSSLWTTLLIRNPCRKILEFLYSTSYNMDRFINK

Row | IC50 [nM] | SMILES
1 | 75 | O=C(c1ccc(F)cc1)C1CCN(C(=O)c2ccc(Cl)cc2)C1 (stereo not drawn) [Example 5]
2 | 70 | O=C(c1ccc(F)cc1)C1CCN(C(=O)c2ccccc2Cl)C1 (stereo not drawn) [Example 7]
3 | 447 | O=C(c1ccc(F)cc1)C1CCN(S(=O)(=O)c2ccc(F)cc2)C1 (stereo not drawn) [Example 18]
